Laboratory results as given in patent US20250230193A1, “CYCLIC COMPOUND HAVING SELECTIVE KRAS INHIBITORY EFFECT ON HRAS AND NRAS” (CHUGAI SEIYAKU KABUSHIKI KAISHA, priority 2022, published 2025).

Experiments:
[1] = molecular target: GDP-bound HRAS wild-type protein (Homo sapiens, UniProt P01112); experiment: Binding to HRAS by surface plasmon resonance (SPR), Single Cycle Kinetics; details: KD ratio, GDP-bound HRAS wild-type vs GDP-bound KRAS wild-type, SPR
[2] = molecular target: GDP-bound NRAS wild-type protein (Homo sapiens, UniProt P01111); experiment: Binding to NRAS by surface plasmon resonance (SPR), Single Cycle Kinetics; details: KD ratio, GDP-bound NRAS wild-type vs GDP-bound KRAS wild-type, SPR
GDP-bound NRAS wild-type protein, sequence (P01111 whole entry): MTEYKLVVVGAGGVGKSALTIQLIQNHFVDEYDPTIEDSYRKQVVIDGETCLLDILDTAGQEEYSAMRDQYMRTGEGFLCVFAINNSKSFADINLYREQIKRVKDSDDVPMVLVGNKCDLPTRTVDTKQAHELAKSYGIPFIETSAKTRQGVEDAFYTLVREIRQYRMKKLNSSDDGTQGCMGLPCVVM

GDP-bound HRAS wild-type protein, sequence (P01112 whole entry): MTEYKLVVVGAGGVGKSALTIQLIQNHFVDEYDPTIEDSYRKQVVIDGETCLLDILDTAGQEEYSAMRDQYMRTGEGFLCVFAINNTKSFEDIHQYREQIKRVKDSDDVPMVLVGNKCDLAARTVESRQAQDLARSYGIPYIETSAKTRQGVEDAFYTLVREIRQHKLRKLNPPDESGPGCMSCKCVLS

SMILES	HRAS/KRAS (ratio of KD value for HRAS to KD value for KRAS) [1]	NRAS/KRAS (ratio of KD value for NRAS to KD value for KRAS) [2]
CCO[C@@H]1C[C@H]2C(=O)NC3(CC(F)(F)C3)C(=O)N(C)[C@@H](C3CCCC3)C(=O)N(C)[C@H](C3CCC3)CC(=O)N(C)[C@@H](CC3CC3)C(=O)N[C@@H]([C@@H](C)CC)C(=O)N(C)CC(=O)N(C)[C@H]3C/C=C\CCN(C3=O)[C@@H](Cc3ccc(C(F)(F)F)cc3)C(=O)N(C)CC(=O)N[C@@H](CCc3cc(F)c(C(F)(F)F)c(F)c3)C(=O)N2C1 [PP1639]	A (a compound having 10 or more and less than 20 is denoted as A)	A (a compound having 10 or more and less than 20 is denoted as A)
CCO[C@@H]1C[C@H]2C(=O)NC3(CC(C)(C)C3)C(=O)N(C)[C@@H](C3CCCC3)C(=O)N(C)[C@H](C(=O)N(C)C)CC(=O)N(C)[C@@H](C)C(=O)N[C@@H]([C@@H](C)CC)C(=O)N(C)CC(=O)N(C)[C@H]3C/C=C\CCN(C3=O)[C@@H](Cc3ccc(C(F)(F)F)cc3)C(=O)N(C)CC(=O)N[C@@H](CCc3cc(F)c(C(F)(F)F)c(F)c3)C(=O)N2C1 [PP1641]	A (a compound having 10 or more and less than 20 is denoted as A)	A (a compound having 10 or more and less than 20 is denoted as A)
CCO[C@@H]1C[C@H]2C(=O)NC3(CC(C)(C)C3)C(=O)N(C)[C@@H](C3CCCC3)C(=O)N(C)[C@H](C(=O)N(C)CC)CC(=O)N(C)[C@@H](CC(F)F)C(=O)N[C@@H]([C@@H](C)CC)C(=O)N(C)CC(=O)N(C)[C@H]3C/C=C\CCN(C3=O)[C@@H](Cc3ccc(C(F)(F)F)cc3)C(=O)N(C)CC(=O)N[C@@H](CCc3cc(F)c(C(F)(F)F)c(F)c3)C(=O)N2C1 [PP1643]	A (a compound having 10 or more and less than 20 is denoted as A)	A (a compound having 10 or more and less than 20 is denoted as A)
CCO[C@@H]1C[C@H]2C(=O)NC3(CC(C)(C)C3)C(=O)N(C)[C@@H](C3CCCC3)C(=O)N(C)[C@H](C(=O)N(C)C)CC(=O)N(C)[C@@H](CC(F)(F)F)C(=O)N[C@@H]([C@@H](C)CC)C(=O)N(C)CC(=O)N(C)[C@H]3C/C=C\CCN(C3=O)[C@@H](Cc3ccc(C(F)(F)F)cc3)C(=O)N(C)CC(=O)N[C@@H](CCc3cc(F)c(C(F)(F)F)c(F)c3)C(=O)N2C1 [PP1644]	A (a compound having 10 or more and less than 20 is denoted as A)	A (a compound having 10 or more and less than 20 is denoted as A)
CCC[C@H]1C(=O)N[C@@H]([C@@H](C)CC)C(=O)N(C)CC(=O)N(C)[C@H]2C/C=C\CCN(C2=O)[C@@H](Cc2ccc(C(F)(F)F)cc2)C(=O)N(C)CC(=O)N[C@@H](CCc2cc(F)c(C(F)(F)F)c(F)c2)C(=O)N2C[C@H](OCC)C[C@H]2C(=O)NC2(CC(C)(C)C2)C(=O)N(C)[C@@H](C2CCCC2)C(=O)N(C)[C@H](C(=O)N(C)C)CC(=O)N1C [PP1645]	A (a compound having 10 or more and less than 20 is denoted as A)	A (a compound having 10 or more and less than 20 is denoted as A)
CCC[C@H]1C(=O)N[C@@H]([C@@H](C)CC)C(=O)N(C)CC(=O)N(C)[C@H]2C/C=C\CCN(C2=O)[C@@H](Cc2ccc(C(F)(F)F)cc2)C(=O)N(C)CC(=O)N[C@@H](CCc2cc(F)c(C(F)(F)F)c(F)c2)C(=O)N2C[C@H](OCC)C[C@H]2C(=O)NC2(CC(C)(C)C2)C(=O)N(C)[C@@H](C2CCCC2)C(=O)N(C)[C@H](C(=O)N(C)CC)CC(=O)N1C [PP1646]	A (a compound having 10 or more and less than 20 is denoted as A)	A (a compound having 10 or more and less than 20 is denoted as A)
CCO[C@@H]1C[C@H]2C(=O)NC3(CC(C)(C)C3)C(=O)N(C)[C@@H](C3CCCC3)C(=O)N(C)[C@H](C(=O)N(C)CC)CC(=O)N(C)[C@@H](CC3CC3)C(=O)N[C@@H]([C@@H](C)CC)C(=O)N(C)CC(=O)N(C)[C@H]3C/C=C\CCN(C3=O)[C@@H](Cc3ccc(C(F)(F)F)cc3)C(=O)N(C)CC(=O)N[C@@H](CCc3cc(F)c(C(F)(F)F)c(F)c3)C(=O)N2C1 [PP1648]	A (a compound having 10 or more and less than 20 is denoted as A)	A (a compound having 10 or more and less than 20 is denoted as A)
CCCC[C@H]1C(=O)N[C@@H]([C@@H](C)CC)C(=O)N(C)CC(=O)N(C)[C@H]2C/C=C\CCN(C2=O)[C@@H](Cc2ccc(C(F)(F)F)cc2)C(=O)N(C)CC(=O)N[C@@H](CCc2cc(F)c(C(F)(F)F)c(F)c2)C(=O)N2C[C@H](OCC)C[C@H]2C(=O)NC2(CC(C)(C)C2)C(=O)N(C)[C@@H](C2CCCC2)C(=O)N(C)[C@H](C(=O)N(C)C)CC(=O)N1C [PP1649]	B (a compound having 3 or more and less than 10 is denoted as B)	A (a compound having 10 or more and less than 20 is denoted as A)
CCO[C@@H]1C[C@H]2C(=O)NC3(CC(C)(C)C3)C(=O)N(C)[C@@H](C3CCCC3)C(=O)N(C)[C@H](C(=O)N(C)C)CC(=O)N(C)[C@@H](CC(C)C)C(=O)N[C@@H]([C@@H](C)CC)C(=O)N(C)CC(=O)N(C)[C@H]3C/C=C\CCN(C3=O)[C@@H](Cc3ccc(C(F)(F)F)cc3)C(=O)N(C)CC(=O)N[C@@H](CCc3cc(F)c(C(F)(F)F)c(F)c3)C(=O)N2C1 [PP1650, (2S,8S,12R,14S,20S,23S,27S,30S,36S,38Z)-20-cyclopentyl-8-[2-[3,5-difluoro-4-(trifluoromethyl)phenyl]ethyl]-12-ethoxy-27-isobutyl-N,N,3′,3′,4,19,22,26,32,35-decamethyl-30-[(1S)-1-methylpropyl]-3,6,9,15,18,21,25,28,31,34,42-undecaoxo-2-[[4-(trifluoromethyl)phenyl]methyl]spiro[1,4,7,10,16,19,22,26,29,32,35-undecazatricyclo[34.5.1.0^10,14]dotetracont-38-ene-17,1′-cyclobutane]-23-carboxamide]	A (a compound having 10 or more and less than 20 is denoted as A)	A (a compound having 10 or more and less than 20 is denoted as A)
CCO[C@@H]1C[C@H]2C(=O)NC3(CC(C)(C)C3)C(=O)N(C)[C@@H](C3CCCC3)C(=O)N(C)[C@H](C(=O)N(C)C)CC(=O)N(C)[C@@H](CC3CCC3)C(=O)N[C@@H]([C@@H](C)CC)C(=O)N(C)CC(=O)N(C)[C@H]3C/C=C\CCN(C3=O)[C@@H](Cc3ccc(C(F)(F)F)cc3)C(=O)N(C)CC(=O)N[C@@H](CCc3cc(F)c(C(F)(F)F)c(F)c3)C(=O)N2C1 [PP1651]	B (a compound having 3 or more and less than 10 is denoted as B)	A (a compound having 10 or more and less than 20 is denoted as A)
CCO[C@@H]1C[C@H]2C(=O)NC3(CC(C)(C)C3)C(=O)N(C)[C@@H](C3CCCC3)C(=O)N(C)[C@H](C(=O)N(C)CC)CC(=O)N(C)[C@@H](CC)C(=O)N[C@@H]([C@@H](C)CC)C(=O)N(C)CC(=O)N(C)[C@H]3C/C=C\CCN(C3=O)[C@@H](Cc3ccc(C(F)(F)F)cc3)C(=O)N(C)CC(=O)N[C@@H](CCc3ccc(C(F)(F)F)c(OC)c3)C(=O)N2C1 [PP1653]	A (a compound having 10 or more and less than 20 is denoted as A)	A (a compound having 10 or more and less than 20 is denoted as A)
CCCN(C)C(=O)[C@@H]1CC(=O)N(C)[C@@H](CC)C(=O)N[C@@H]([C@@H](C)CC)C(=O)N(C)CC(=O)N(C)[C@H]2C/C=C\CCN(C2=O)[C@@H](Cc2ccc(C(F)(F)F)cc2)C(=O)N(C)CC(=O)N[C@@H](CCc2ccc(C(F)(F)F)c(OC)c2)C(=O)N2C[C@H](OCC)C[C@H]2C(=O)NC2(CC(C)(C)C2)C(=O)N(C)[C@@H](C2CCCC2)C(=O)N1C [PP1654]	A (a compound having 10 or more and less than 20 is denoted as A)	A (a compound having 10 or more and less than 20 is denoted as A)
CCO[C@@H]1C[C@H]2C(=O)NC3(CC(C)(C)C3)C(=O)N(C)[C@@H](C3CCCC3)C(=O)N(C)[C@H](C(=O)N(C)CC)CC(=O)N(C)[C@@H](CC(F)F)C(=O)N[C@@H]([C@@H](C)CC)C(=O)N(C)CC(=O)N(C)[C@H]3C/C=C\CCN(C3=O)[C@@H](Cc3ccc(C(F)(F)F)cc3)C(=O)N(C)CC(=O)N[C@@H](CCc3ccc(C(F)(F)F)c(OC)c3)C(=O)N2C1 [PP1655]	A (a compound having 10 or more and less than 20 is denoted as A)	A (a compound having 10 or more and less than 20 is denoted as A)
CCCN(C)C(=O)[C@@H]1CC(=O)N(C)[C@@H](COC)C(=O)N[C@@H]([C@@H](C)CC)C(=O)N(C)CC(=O)N(C)[C@H]2C/C=C\CCN(C2=O)[C@@H](Cc2ccc(C(F)(F)F)cc2)C(=O)N(C)CC(=O)N[C@@H](CCc2ccc(C(F)(F)F)c(OC)c2)C(=O)N2C[C@H](OCC)C[C@H]2C(=O)NC2(CC(C)(C)C2)C(=O)N(C)[C@@H](C2CCCC2)C(=O)N1C [PP1656]	A (a compound having 10 or more and less than 20 is denoted as A)	AA (a compound having 20 or more is denoted as AA)
CCCOC[C@H]1C(=O)N[C@@H]([C@@H](C)CC)C(=O)N(C)CC(=O)N(C)[C@H]2C/C=C\CCN(C2=O)[C@@H](Cc2ccc(C(F)(F)F)cc2)C(=O)N(C)CC(=O)N[C@@H](CCc2ccc(C(F)(F)F)c(OC)c2)C(=O)N2C[C@H](OCC)C[C@H]2C(=O)NC2(CC(C)(C)C2)C(=O)N(C)[C@@H](C2CCCC2)C(=O)N(C)[C@H](C(=O)N(C)C)CC(=O)N1C [PP1657]	B (a compound having 3 or more and less than 10 is denoted as B)	A (a compound having 10 or more and less than 20 is denoted as A)
